Data published in patent US6960592B2, “1,6-dihydro-7H-pyrazolo[4,3-d]pyrimidin-7-one compound for the treatment of impotence” (priority 2001, dated 2005).

Legend:
rats with testis removed = test: Penis erection test in rats with testis removed; type: in vivo
Source text: Test 1. Penis erection test of the compound formula (I′) in rats with testis removed

mice with testis removed = test: Effect on the sexual function in mice with testis removed; type: in vivo
Source text: Test 2. Effect of the compound of formula (I′) on the sexual function in mice with testis removed

[1] = Toxicity test, LD50 by Bliss method, oral gavage; settings: mouse, in vivo, mice, orally by gavage, confidence limit of 95% 772.5-1052.1 mg/kg, read-out: half-lethal dosage (LD50)
Procedure: The confidence limit of 95% is 772.5-1052.1 mg/kg.

male mice = settings: orally, single dose, from Chinese Journal of Clinical Pharmacology and Therapeutics 1999, 4(3), 237-240; cited from earlier work

| Compound | latent period of penis erection by electric irritation (10V) (rats with testis removed; dosage 12 mg/kg, P<0.01) | latent period of penis erection by electric irritation (10V) (rats with testis removed; dosage 24 mg/kg, P<0.05) | latent period which male mice catch female mice (mice with testis removed; dosage 12 mg/kg, P<0.01) | times of back-climbing on female mice by male mice (times of sexual intercourse) (mice with testis removed; dosage 12 mg/kg, P<0.01) | latent period which male mice catch female mice (mice with testis removed; dosage 24 mg/kg, P<0.05) | times of back-climbing on female mice by male mice (times of sexual intercourse) (mice with testis removed; dosage 24 mg/kg, P<0.05) | LD50 [1] [mg/kg] | latent period of penis erection by electric irritation (10V) (rats with testis removed; sildenafil comparator, dose not given, P<0.01) | LD50 (male mice) [mg/kg] |
| --- | --- | --- | --- | --- | --- | --- | --- | --- | --- |
| CCCc1nn(C)c2c(=O)[nH]c(-c3cc(S(=O)(=O)N4C[C@@H](C)N[C@@H](C)C4)ccc3OCC)nc12 [compound of formula (I′), 5-[[2-ethoxy-5-(cis-2,6-dimethylpiperazin-4-ylsulphonyl)phenyl]]-1-methyl-3-n-propyl-7,6-dihydro-1H-pyrazolo[4,3-d]pyrimidin-7-one] | significantly shortened | significantly shortened | significantly shortened | significantly increased | significantly shortened | significantly increased | 902 |  |  |
| CCCc1nn(C)c2c(=O)[nH]c(-c3cc(S(=O)(=O)N4CCN(C)CC4)ccc3OCC)nc12 [sildenafil, 1-[4-ethoxy-3-(6,7-dihydro-1-methyl-7-oxo-3-propyl-1H-pyrazolo[4,3-d]pyrimidin-5-yl)phenylsulphonyl]-4-methylpiperazine, reference compound] |  |  |  |  |  |  |  | significantly shortened | 625 |
